Measured values from ChEMBL document CHEMBL3745645, “Synthesis, in vitro antitumor activity, dihydrofolate reductase inhibition, DNA intercalation and structure-activity relationship studies of 1,3,5-triazine analogues” (Bioorg Med Chem Lett, 2016).
Activity calls are given as the source filed them. The rule behind the calls is not given here.

Columns and labels:
[1] = tested on: 786-0; assay: Cytotoxicity against human 786-0 cells after 48 hrs by SRB assay; type: functional; conditions: 786-0, 48 h, pooled result: one value given for 8 cell lines, strains, targets or settings
[2] = tested on: T47D; assay: Cytotoxicity against human T47D cells at 10 uM after 48 hrs by SRB assay; type: functional; conditions: for inhibition of growth at 10 µM: read-out: GI
[3] = Cytotoxicity against human RPMI8226 cells after 48 hrs by SRB assay; type: functional; conditions: RPMI-8226, 48 h, read-out: LC50 (the source's name)
[4] = Cytotoxicity against human LOXIMVI cells after 48 hrs by SRB assay; type: functional; conditions: LOX IMVI, pooled result: one value given for 9 cell lines, strains, targets or settings
[5] = Cytotoxicity against human SF268 cells after 48 hrs by SRB assay; type: functional; conditions: SF-268, 48 h, pooled result: one value given for 6 cell lines, strains, targets or settings
[6] = molecular target: T1, Dihydrofolate reductase (Homo sapiens, UniProt P00374); assay: Inhibition of human recombinant DHFR expressed in Escherichia coli by spectrophotometric analysis
T1 sequence (P00374 whole entry): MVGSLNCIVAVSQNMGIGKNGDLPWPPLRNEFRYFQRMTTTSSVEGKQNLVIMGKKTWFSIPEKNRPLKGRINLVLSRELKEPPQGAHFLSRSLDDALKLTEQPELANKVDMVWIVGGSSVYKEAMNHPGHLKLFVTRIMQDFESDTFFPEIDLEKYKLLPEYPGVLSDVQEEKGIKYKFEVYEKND

[7] = Cytotoxicity against human DU145 cells after 48 hrs by SRB assay; type: functional; conditions: DU-145, 48 h, read-out: LC50 (the source's name)
[8] = tested on: Calf thymus DNA; assay: Binding affinity to calf thymus DNA by UV-vis spectrometric analysis; type: nucleic-acid assay; conditions: Bos taurus
[9] = Cytotoxicity against human COLO205 cells after 48 hrs by SRB assay; type: functional; conditions: COLO 205, 48 h, pooled result: one value given for 7 cell lines, strains, targets or settings
[10] = tested on: Calf thymus DNA; assay: Binding affinity to calf thymus DNA by fluorescence spectrophotometric analysis; type: nucleic-acid assay; conditions: Bos taurus
[11] = tested on: NCI-H322M; assay: Cytotoxicity against human NCI-H322M cells at 10 uM after 48 hrs by SRB assay; type: functional; conditions: read-out: GI
[12] = tested on: K562; assay: Cytotoxicity against human K562 cells after 48 hrs by SRB assay; type: functional; conditions: K562, 48 h
[13] = tested on: SN12C; assay: Cytotoxicity against human SN12C cells at 10 uM after 48 hrs by SRB assay; type: functional; conditions: for inhibition of growth at 10 µM: read-out: GI
[14] = tested on: A498; assay: Cytotoxicity against human A498 cells at 10 uM after 48 hrs by SRB assay; type: functional; conditions: for inhibition of growth at 10 µM: A498, 48 h, read-out: GI
[15] = tested on: M14; assay: Cytotoxicity against human M14 cells at 10 uM after 48 hrs by SRB assay; type: functional; conditions: for inhibition of growth at 10 µM: M14, 48 h, read-out: GI
[16] = tested on: 786-0; assay: Cytotoxicity against human 786-0 cells at 10 uM after 48 hrs by SRB assay; type: functional; conditions: for inhibition of growth at 10 µM: 786-0, 48 h, read-out: GI
[17] = tested on: HT-29; assay: Cytotoxicity against human HT-29 cells at 10 uM after 48 hrs by SRB assay; type: functional; conditions: for inhibition of growth at 10 µM: HT-29, 48 h, read-out: GI
[18] = tested on: MDA-MB-468; assay: Cytotoxicity against human MDA-MB-468 cells at 10 uM after 48 hrs by SRB assay; type: functional; conditions: for inhibition of growth at 10 µM: MDA-MB-468, 48 h, read-out: GI
[19] = tested on: U-251; assay: Cytotoxicity against human U251 cells at 10 uM after 48 hrs by SRB assay; type: functional; conditions: for inhibition of growth at 10 µM: U-251, 48 h, read-out: GI
[20] = Cytotoxicity against human SNB19 cells at 10 uM after 48 hrs by SRB assay; type: functional; conditions: SNB-19, 48 h, read-out: GI
[21] = Cytotoxicity against human Hs 578T cells at 10 uM after 48 hrs by SRB assay; type: functional; conditions: read-out: GI
[22] = tested on: SR; assay: Cytotoxicity against human SR cells at 10 uM after 48 hrs by SRB assay; type: functional; conditions: for inhibition of growth at 10 µM: read-out: GI
[23] = tested on: A549; assay: Cytotoxicity against human A549 cells after 48 hrs by SRB assay; type: functional; conditions: A549, 48 h, pooled result: one value given for 8 cell lines, strains, targets or settings
[24] = tested on: ACHN; assay: Cytotoxicity against human ACHN cells at 10 uM after 48 hrs by SRB assay; type: functional; conditions: read-out: GI
[25] = tested on: SK-MEL-28; assay: Cytotoxicity against human SK-MEL-28 cells at 10 uM after 48 hrs by SRB assay; type: functional
[26] = tested on: MDA-MB-435; assay: Cytotoxicity against human MDA-MB-435 cells at 10 uM after 48 hrs by SRB assay; type: functional; conditions: for inhibition of growth at 10 µM: MDA-MB-435, 48 h, read-out: GI
[27] = Cytotoxicity against human PC3 cells after 48 hrs by SRB assay; type: functional; conditions: PC-3, 48 h; for GI50 / TGI: pooled result: one value given for 2 cell lines, strains, targets or settings
[28] = Cytotoxicity against human Caki1 cells at 10 uM after 48 hrs by SRB assay; type: functional; conditions: CAKI-1, 48 h, read-out: GI
[29] = Cytotoxicity against human SKOV3 cells at 10 uM after 48 hrs by SRB assay; type: functional; conditions: SK-OV-3, 48 h, read-out: GI
[30] = Cytotoxicity against human SF539 cells at 10 uM after 48 hrs by SRB assay; type: functional; conditions: SF-539, 48 h, read-out: GI
[31] = Cytotoxicity against human SF268 cells at 10 uM after 48 hrs by SRB assay; type: functional; conditions: SF-268, 48 h, read-out: GI
[32] = Cytotoxicity against human RXF393 cells at 10 uM after 48 hrs by SRB assay; type: functional; conditions: RXF 393, 48 h, read-out: GI
[33] = Cytotoxicity against human UO31 cells at 10 uM after 48 hrs by SRB assay; type: functional; conditions: UO-31, 48 h, read-out: GI
[34] = Cytotoxicity against human HCT116 cells at 10 uM after 48 hrs by SRB assay; type: functional; conditions: HCT-116, 48 h, read-out: GI
[35] = Cytotoxicity against human COLO205 cells at 10 uM after 48 hrs by SRB assay; type: functional; conditions: COLO 205, 48 h, read-out: GI
[36] = Cytotoxicity against human MOLT4 cells at 10 uM after 48 hrs by SRB assay; type: functional; conditions: MOLT-4, 48 h, read-out: GI
[37] = Cytotoxicity against human LOXIMVI cells at 10 uM after 48 hrs by SRB assay; type: functional; conditions: LOX IMVI, read-out: GI
[38] = Cytotoxicity against human HOP62 cells at 10 uM after 48 hrs by SRB assay; type: functional; conditions: HOP-62, 48 h, read-out: GI
[39] = Cytotoxicity against human OVCAR8 cells at 10 uM after 48 hrs by SRB assay; type: functional; conditions: OVCAR-8, 48 h, read-out: GI
[40] = Cytotoxicity against human SW620 cells at 10 uM after 48 hrs by SRB assay; type: functional; conditions: SW-620, 48 h, read-out: GI
[41] = Cytotoxicity against human OVCAR5 cells at 10 uM after 48 hrs by SRB assay; type: functional; conditions: OVCAR-5, 48 h, read-out: GI

Cc1nc2cc(Nc3nc(Nc4ccc(F)cc4)nc(N4CCCC4)n3)ccc2n1Cc1ccccc1
GI50 [1]: 1.75 µM
LC50 (concentration killing 50% of cells) [1]: 1.26 µM
TGI [1]: 3.56 µM
growth inhibition (GI) [2]: Active
CC50 [3]: > 100 µM
GI50 [4]: 1.81 µM
LC50 [4]: 13.7 µM
TGI [4]: 3.68 µM
GI50 [5]: 2.08 µM
LC50 (concentration killing 50% of cells) [5]: 8.64 µM
TGI [5]: 17.6 µM
IC50 [6]: 0.11 µM
CC50 [7]: 6 µM
Ka [8]: 5.23 ×10⁴ /M
GI50 [9]: 1.81 µM
LC50 [9]: 6.93 µM
TGI [9]: 3.54 µM
Ka [10]: 5.46 ×10⁴ /M
inhibition of growth at 10 µM [11]: 78.6%
LC50 [12]: > 100 µM
growth inhibition (GI) [13]: Active
growth inhibition (GI) [14]: Active
growth inhibition (GI) [15]: Active
growth inhibition (GI) [16]: Active
growth inhibition (GI) [17]: Active
growth inhibition (GI) [18]: Active
growth inhibition (GI) [19]: Active
inhibition of growth at 10 µM [20]: 66.4%
inhibition of growth at 10 µM [21]: 69.4%
growth inhibition (GI) [22]: Active
GI50 [23]: 1.82 µM
LC50 [23]: 14.5 µM
TGI [23]: 4.02 µM
inhibition of growth at 10 µM [24]: 88.5%
growth inhibition (GI) [25]: Active
growth inhibition (GI) [26]: Active
LC50 [27]: 6 µM
GI50 [27]: 1.82 µM
TGI [27]: 3.82 µM

Cc1nc2ccc(Nc3nc(Cl)nc(Nc4ccc(F)cc4)n3)cc2n1Cc1ccccc1
GI50 [1]: 7.49 µM
LC50 (concentration killing 50% of cells) [1]: 55.5 µM
TGI [1]: 30 µM
inhibition of growth at 10 µM [28]: 13.1%
inhibition of growth at 10 µM [29]: 2.61%
inhibition of growth at 10 µM [2]: 63.2%
CC50 [3]: > 100 µM
GI50 [4]: 5.92 µM
LC50 [4]: 53.9 µM
TGI [4]: 18.4 µM
GI50 [5]: 6.39 µM
LC50 (concentration killing 50% of cells) [5]: 43.5 µM
TGI [5]: 24.3 µM
IC50 [6]: 0.31 µM
CC50 [7]: 52.5 µM
Ka [8]: 6.03 ×10⁴ /M
inhibition of growth at 10 µM [30]: 1.83%
inhibition of growth at 10 µM [31]: 24.6%
inhibition of growth at 10 µM [32]: 15.4%
GI50 [9]: 4.91 µM
LC50 [9]: 54.6 µM
TGI [9]: 18.1 µM
inhibition of growth at 10 µM [33]: 62.9%
inhibition of growth at 10 µM [34]: 55.8%
inhibition of growth at 10 µM [35]: 8.82%
inhibition of growth at 10 µM [36]: 41.1%
Ka [10]: 2.97 ×10⁴ /M
inhibition of growth at 10 µM [37]: 64.8%
inhibition of growth at 10 µM [38]: 56.1%
inhibition of growth at 10 µM [11]: 11.9%
LC50 [12]: > 100 µM
inhibition of growth at 10 µM [13]: 53.3%
inhibition of growth at 10 µM [14]: 22.2%
inhibition of growth at 10 µM [15]: 17.7%
inhibition of growth at 10 µM [16]: 20.4%
inhibition of growth at 10 µM [39]: 57.7%
inhibition of growth at 10 µM [17]: 15.8%
inhibition of growth at 10 µM [18]: 30.3%
inhibition of growth at 10 µM [19]: 30.9%
inhibition of growth at 10 µM [20]: 12%
inhibition of growth at 10 µM [21]: 11.1%
inhibition of growth at 10 µM [22]: 63.9%
GI50 [23]: 6.23 µM
LC50 [23]: 69.6 µM
TGI [23]: 20.3 µM
inhibition of growth at 10 µM [24]: 28.4%
inhibition of growth at 10 µM ([25]; SK-MEL-28, 48 h, read-out: GI): 8.45%
inhibition of growth at 10 µM [26]: 11.2%
inhibition of growth at 10 µM [40]: 17.2%
LC50 [27]: 52.5 µM
GI50 [27]: 8.27 µM
TGI [27]: 27.7 µM

Cc1nc2ccc(Nc3nc(NCCN)nc(Nc4ccc(F)cc4)n3)cc2n1Cc1ccccc1
inhibition of growth at 10 µM [28]: 1.79%
inhibition of growth at 10 µM [29]: 13.2%
inhibition of growth at 10 µM [2]: 23.2%
inhibition of growth at 10 µM [30]: 0.19%
inhibition of growth at 10 µM [31]: 19.2%
inhibition of growth at 10 µM [32]: 25.8%
inhibition of growth at 10 µM [33]: 13.7%
inhibition of growth at 10 µM [34]: 39.7%
inhibition of growth at 10 µM [35]: 33.6%
inhibition of growth at 10 µM [36]: 40.7%
inhibition of growth at 10 µM [37]: 30%
inhibition of growth at 10 µM [41]: 6.17%
inhibition of growth at 10 µM [38]: 20.6%
inhibition of growth at 10 µM [11]: 7.76%
inhibition of growth at 10 µM [13]: 24.8%
inhibition of growth at 10 µM [14]: 25.5%
inhibition of growth at 10 µM [15]: 16.4%
inhibition of growth at 10 µM [16]: 20.5%
inhibition of growth at 10 µM [39]: 17.7%
inhibition of growth at 10 µM [17]: 55.5%
inhibition of growth at 10 µM [18]: 49.5%
inhibition of growth at 10 µM [19]: 46.5%
inhibition of growth at 10 µM [20]: 10.1%
inhibition of growth at 10 µM [21]: 20.5%
inhibition of growth at 10 µM [22]: 88.9%
inhibition of growth at 10 µM [24]: 8.19%
inhibition of growth at 10 µM [26]: 9.38%
inhibition of growth at 10 µM [40]: 1.71%
